In brackets after ≈: the same amount, converted by molar mass.
Tests used:
Format in all cases: cell-based
[1] = system: Escherichia Coli MC 4100 AcrAB UPA3r; test: MIC broth microdilution, E. coli MC 4100 AcrAB UPA3r (ΔAcrAB, UPA resistant); settings: E. coli AcrAB UPA3^r
[2] = system: Pseudomonas aeruginosa PAM 1135; test: MIC broth microdilution, P. aeruginosa PAM 1135 (high level UPA resistance); settings: P. aeruginosa PAM 1135 UPA1^r
[3] = system: Pasteurella multocida pm002; test: MIC broth microdilution, P. multocida pm002 (wild type)
[4] = system: Escherichia Coli MC 4100 AcrAB; test: MIC broth microdilution, E. coli MC 4100 AcrAB (ΔAcrAB); settings: E. coli AcrAB
[5] = system: Staphylococcus aureus 8325-4; test: MIC broth microdilution, S. aureus 8325-4 (wild type); settings: S. aureus 8325-4
[6] = system: Pseudomonas aeruginosa PAM 1154; test: MIC broth microdilution, P. aeruginosa PAM 1154 (OprM::Hg); settings: P. aeruginosa PAM 1154 OprM::Hg
Escherichia Coli MC 4100 = test: MIC broth microdilution, E. coli MC 4100 (wild type); settings: E. coli MC 4100
[7] = system: Staphylococcus aureus ATCC 29213; test: MIC broth microdilution, S. aureus ATCC 29213 (wild type); settings: S. aureus ATCC 29213
[8] = system: Pseudomonas aeruginosa PAM 1323; test: MIC broth microdilution, P. aeruginosa PAM 1323 (medium level UPA resistance)
[9] = system: Pseudomonas aeruginosa PAM 1020; test: MIC broth microdilution, P. aeruginosa PAM 1020 (wild type); settings: P. aeruginosa PAM 1020

| Structure (SMILES) | MIC (μg/ml) Broth microdilution [1] | MIC (μg/ml) Broth microdilution [2] | MIC (μg/ml) Broth microdilution [3] | MIC (μg/ml) Broth microdilution [4] | MIC (μg/ml) Broth microdilution [5] | MIC (μg/ml) Broth microdilution [6] | MIC (μg/ml) Broth microdilution (Escherichia Coli MC 4100) | MIC (μg/ml) Broth microdilution [7] | MIC (μg/ml) Broth microdilution [8] | MIC (μg/ml) Broth microdilution [9] |
| --- | --- | --- | --- | --- | --- | --- | --- | --- | --- | --- |
| C[C@H](N)C(=O)N(C)[C@@H](C)[C@H](NC(=O)[C@H](Cc1ccccc1F)NC(=O)N[C@@H](Cc1c[nH]c2ccccc12)C(=O)O)C(=O)NC[C@H]1C[C@@H](O)[C@H](n2ccc(=O)[nH]c2=O)O1 [Compound 139, 1-[5′-[(2S,3S)-N^3-L-Alanyl-N^2-[N-[[(1S)-1-carboxy-2-indol-3-ylethyl]carbamoyl]-L-2-fluorophenylalanyl]-N^3-methyl-2,3-diaminobutyramido]-3′,5′-dideoxy-α-L-arabinofuranosyl]uracil] | 64 µg/mL (≈ 79.2 µM) | >512 µg/mL | 256 µg/mL (≈ 317 µM) | 2 µg/mL (≈ 2.48 µM) | 256 µg/mL (≈ 317 µM) | 8 µg/mL (≈ 9.9 µM) | >512 µg/mL | 256 µg/mL (≈ 317 µM) | 512 µg/mL (≈ 634 µM) | 64 µg/mL (≈ 79.2 µM) |
| C[C@H](N)C(=O)N(C)[C@@H](C)[C@H](NC(=O)[C@H](Cc1ccccc1F)NC(=O)N[C@@H](Cc1ccc(O)cc1)C(=O)O)C(=O)NC[C@H]1C[C@@H](O)[C@H](n2ccc(=O)[nH]c2=O)O1 [Compound 140, 1-[5′-[(2S,3S)-N^3-L-Alanyl-N^2-[N-[[(1S)-1-carboxy-4-hydroxyphenethyl]carbamoyl]-L-2-fluorophenylalanyl]-N^3-methyl-2,3-diaminobutyramido]-3′,5′-dideoxy-α-L-arabinofuranosyl]uracil] | 8 µg/mL (≈ 10.2 µM) | >512 µg/mL | >512 µg/mL | <1 µg/mL | 512 µg/mL (≈ 652 µM) | 4 µg/mL (≈ 5.1 µM) | 64 µg/mL (≈ 81.5 µM) | 512 µg/mL (≈ 652 µM) | 512 µg/mL (≈ 652 µM) | 64 µg/mL (≈ 81.5 µM) |
| C[C@H](N)C(=O)N(C)[C@@H](C)[C@H](NC(=O)[C@H](Cc1ccc(F)c(F)c1)NC(=O)N[C@@H](Cc1c[nH]c2ccccc12)C(=O)O)C(=O)NC[C@H]1C[C@@H](O)[C@H](n2ccc(=O)[nH]c2=O)O1 [Compound 143, 1-[5′-[(2S,3S)-N^3-L-Alanyl-N^2-[N-[[(1S)-1-carboxy-2-indol-3-ylethyl]carbamoyl]-L-(3,4)-difluorophenylalanyl]-N^3-methyl-2,3-diaminobutyramido]-3′,5′-dideoxy-α-L-arabinofuranosyl]uracil] | 16 µg/mL (≈ 19.4 µM) | >512 µg/mL | 128 µg/mL (≈ 155 µM) | <1 µg/mL | 256 µg/mL (≈ 310 µM) | 16 µg/mL (≈ 19.4 µM) | 256 µg/mL (≈ 310 µM) | 512 µg/mL (≈ 620 µM) | >512 µg/mL | 128 µg/mL (≈ 155 µM) |
| C[C@H](N)C(=O)N(C)[C@@H](C)[C@H](NC(=O)[C@H](Cc1ccc(F)c(F)c1)NC(=O)N[C@@H](Cc1ccc(O)cc1)C(=O)O)C(=O)NC[C@H]1C[C@@H](O)[C@H](n2ccc(=O)[nH]c2=O)O1 [Compound 144, 1-[5′-[(2S,3S)-N^3-L-Alanyl-N^2-[N-[[(1S)-1-carboxy-4-hydroxyphenethyl]carbamoyl]-L-(3,4)-difluorophenylalanyl]-N^3-methyl-2,3-diaminobutyramido)-3′,5′-dideoxy-α-L-arabinofuranosyl]uracil] | <1 µg/mL | >512 µg/mL | 256 µg/mL (≈ 319 µM) | <1 µg/mL | 512 µg/mL (≈ 638 µM) | 8 µg/mL (≈ 9.97 µM) | 4 µg/mL (≈ 4.98 µM) | >512 µg/mL | >512 µg/mL | 64 µg/mL (≈ 79.7 µM) |
| C[C@H](N)C(=O)N(C)[C@@H](C)[C@H](NC(=O)[C@H](Cc1ccc(C(F)(F)F)cc1)NC(=O)N[C@@H](Cc1ccc(O)cc1)C(=O)O)C(=O)NC[C@H]1C[C@@H](O)[C@H](n2ccc(=O)[nH]c2=O)O1 [Compound 145, 1-[5′-[(2S,3S)-N^3-L-Alanyl-N^2-[N-[[(1S)-1-carboxy-4-hydroxyphenethyl]carbamoyl]-L-4-(trifluoromethyl)phenylalanyl]-N^3-methyl-2,3-diaminobutyramido]-3′,5′-dideoxy-α-L-arabinofuranosyl]uracil] | 128 µg/mL (≈ 153 µM) | >512 µg/mL | 512 µg/mL (≈ 613 µM) | 4 µg/mL (≈ 4.79 µM) | >512 µg/mL | 32 µg/mL (≈ 38.3 µM) | 512 µg/mL (≈ 613 µM) | >512 µg/mL | >512 µg/mL | 256 µg/mL (≈ 307 µM) |
| CC(N)C(=O)N(C)C(C)C(NC(=O)C(CCCCN)NC(=O)NC(Cc1c[nH]c2ccccc12)C(=O)O)C(=O)NCC1CC(O)C(n2ccc(=O)[nH]c2=O)O1 [Compound 148, 1-[5′-[(2S,3S)-N^3-L-Alanyl-N^2-[N-[[(1S)-1-carboxy-2-indol-3-ylethyl]carbamoyl]-L-lysinyl]-N^3-methyl-2,3-diaminobutyramido]-3′,5′-dideoxy-α-L-arabinofuranosyl]uracil] | >512 µg/mL | >512 µg/mL | >512 µg/mL | >512 µg/mL | >512 µg/mL | 8 µg/mL (≈ 10.4 µM) | >512 µg/mL | >512 µg/mL | >512 µg/mL | 128 µg/mL (≈ 166 µM) |
| C[C@H](N)C(=O)N(C)[C@@H](C)[C@H](NC(=O)[C@H](Cc1ccccc1)NC(=O)N[C@@H](Cc1c[nH]cn1)C(=O)O)C(=O)NC[C@H]1C[C@@H](O)[C@H](n2ccc(=O)[nH]c2=O)O1 [Compound 149] | 64 µg/mL (≈ 86.4 µM) | >512 µg/mL | 256 µg/mL (≈ 346 µM) | 16 µg/mL (≈ 21.6 µM) | >512 µg/mL | 8 µg/mL (≈ 10.8 µM) | 512 µg/mL (≈ 691 µM) | >512 µg/mL | >512 µg/mL | 512 µg/mL (≈ 691 µM) |
| C[C@@H]([C@H](NC(=O)[C@H](Cc1ccccc1)NC(=O)N[C@@H](Cc1ccc(O)cc1)C(=O)O)C(=O)NC[C@H]1C[C@@H](O)[C@H](n2ccc(=O)[nH]c2=O)O1)N(C)C(=O)[C@@H](N)COCc1ccccc1 [Compound 150, 1-[5′-[(2S,3S)-N^3-(L-O-Benzylserinyl)-N^2-[N-[[(1S)-1-carboxy-4-hydroxyphenethyl]carbamoyl]-L-phenylalanyl]-N^3-methyl-2,3-diaminobutyramido]-3′,5′-dideoxy-α-L-arabinofuranosyl]uracil] | 512 µg/mL (≈ 587 µM) | 256 µg/mL (≈ 293 µM) | 512 µg/mL (≈ 587 µM) | 8 µg/mL (≈ 9.16 µM) | >512 µg/mL | 64 µg/mL (≈ 73.3 µM) | 512 µg/mL (≈ 587 µM) | >512 µg/mL | 256 µg/mL (≈ 293 µM) | 256 µg/mL (≈ 293 µM) |
| CN[C@@H](C)[C@H](NC(=O)[C@H](Cc1ccccc1)NC(=O)N[C@@H](Cc1c[nH]c2ccccc12)C(=O)O)C(=O)NC[C@H]1C[C@@H](O)[C@H](n2ccc(=O)[nH]c2=O)O1 [Compound 151, 1-[5′-[(2S,3S)-N^2-[N-[[(1S)-1-Carboxy-2-indol-3-ylethyl]carbamoyl]-L-phenylalanyl]-N^3-methyl-2,3-diaminobutyramido]-3′,5′-dideoxy-α-L-arabinofuranosyl]uracil] | 128 µg/mL (≈ 178 µM) | 256 µg/mL (≈ 356 µM) | 256 µg/mL (≈ 356 µM) | 4 µg/mL (≈ 5.57 µM) | >512 µg/mL | 32 µg/mL (≈ 44.5 µM) | 512 µg/mL (≈ 712 µM) | >512 µg/mL | 256 µg/mL (≈ 356 µM) | 256 µg/mL (≈ 356 µM) |
| C[C@H](N)C(=O)N(C)[C@@H](C)[C@H](NC(=O)[C@H](Cc1ccc2ccccc2c1)NC(=O)N[C@@H](Cc1ccc(O)cc1)C(=O)O)C(=O)NC[C@H]1C[C@@H](O)[C@H](n2ccc(=O)[nH]c2=O)O1 [Compound 152, 1-[5′-[(2S,3S)-N^3-L-Alanyl-N^2-[N-[[(1S)-1-carboxy-4-hydroxyphenethyl)carbamoyl]-L-3-(2-naphthyl)alanyl]-N^3-methyl-2,3-diaminobutyramido]-3′,5′-dideoxy-α-L-arabinofuranosyl]uracil] | 64 µg/mL (≈ 78.3 µM) | >512 µg/mL | >512 µg/mL | 2 µg/mL (≈ 2.45 µM) | >512 µg/mL | 64 µg/mL (≈ 78.3 µM) | 256 µg/mL (≈ 313 µM) | >512 µg/mL | >512 µg/mL | 256 µg/mL (≈ 313 µM) |

Reference: US6482921B1, “Uridyl peptide antibiotic (UPA) derivatives, their synthesis and use” (Essential Therapeutics, Inc., priority 1999, dated 2002)
